# In patent US20210113602A1, “USE OF 6-THIO-2'-DEOXYGUANOSINE (6-THIO-dG) TO TREAT MELANOMA” (The Board of Regents of the University of Texas System, priority 2018, published 2021):
# Entries after “also recorded” stand apart in the source; their conditions may differ.
# Experiments:
# [1] = test system: BRAF-V600E/NRAS mutant cells derived from melanoma patients resistant to BRAF/MEK inhibitors; assay: Cell viability, Alamar Blue assay; assay type: cell-based, human; details: 7 days; relative to DMSO-treated cells
# Method: (§1) FIGS. 2a-h. […] (FIGS. 2a-c) NRASmut melanoma cells (FIG. 2a), BRAF-V600E/NRAS mutant cells derived from melanoma patients resistant to BRAF/MEK inhibitors (FIG. 2b), or non-transformed melanocytes and fibroblasts (FIG. 2c) were treated with 6-thio-dG for 7 days. Cell viability was measured by Alamar Blue assay and calculated relative to DMSO-treated cells. (FIG. 2d) NRASmut melanoma cells and non-transformed human fibroblasts were treated with 1 or 5 μM 6-thio-dG for 7 or 14 days. Cell death was assessed by PSVUe staining. Percent of apoptotic cells is shown. (FIG. 2e) Cells were treated with DMSO or 1 μM 6-thio-dG for 14 days and telomere length was assessed by Southern blotting of TRF. Mean TRF length expressed as kilobase pairs is indicated at the bottom. (FIGS. 2f-g) Cells were treated with 1 μM 6-thio-dG for 7 days. (FIG. 2f) ROS production was measured by H2DCFDA fluorescence and normalized to MSO treated cells. (FIG. 2g) DNA damage was assessed by γH2AX staining. […] Tumor volume was measured and average tumor volume (n=4)±SEM was plotted vs. time.
# (§2) Cell culture, viability and cell death assays. […] Cell viability was assessed following 6 hr incubation with 500 μM Alamar Blue (ThermoFisher Scientific, Waltham, Mass.) using an EnVision Xcite Multilabel plate reader (Perkin Elmer, Waltham, Mass.). […]
# [2] = test system: NRAS mutant melanoma cells; assay: Cell viability, Alamar Blue assay; assay type: cell-based, human; details: 7 days; relative to DMSO-treated cells
# Method: as §1, §2
# [3] = test system: NRASmut melanoma cells (WM3000 or M93-047) tumors; assay: NRAS mutant melanoma xenograft tumors in NSG mice; assay type: in vivo; details: 2.5 mg/kg i.p. q.d.
# Method: as §1, with “(FIGS. 2f-g) Cells were treated with 1 μM 6-thio-dG for 7 days.” left out
# green) and EtBr (dead cells; red) and imaged using an inverted microscope (4×; scale bar=250 μm). […] P values were calculated using unpaired Student's t-test. * p<0.05, **p<0.01, ***p<0.005, when comparing vehicle control vs. combination treatment groups. […] Kaplan Meier survival curves of mice treated for 14 days. p-values were calculated by Mantel-Cox logrank test; * p<0.05, **p<0.01, ***p<0.005. […]
# [4] = test system: NRAS mutant melanoma cells; assay: Relative cell number, Crystal Violet assay; assay type: cell-based, human; details: 6, 12 or 18 days; relative to DMSO
# Method: Supplementary FIGS. 8a-d. NRAS mutant melanoma cells are sensitive to the telomere uncapping agent 6-thio-dG. NRAS^mut melanoma cells were treated with 6-thio-dG for 6, 12 or 18 days. (Supplementary FIG. 8a) Relative cell number was assessed by […] Violet assay and calculated relative to DMSO-treated cells. Data represent average of three independent experiments +/-SD. (Supplementary FIG. 8b) Representative pictures of cells treated with 6-thio-dG for the indicated days and stained with Crystal Violet. (Supplementary FIG. 8c) NRAS^mut cells were treated with 6-thio-dG for 7 days and telomere-induced foci (TIF) were determined by indirect immunofluorescence combined with fluorescence in situ hybridization (FISH). Cells were considered TIF-positive when for or more co-localizing foci of telomeres and γ-H2AX were found. (Supplementary FIG. 8d) Quantification of TIF assay. Cells were scored as TIF-positive when four or more γ-H2AX foci (green) were co-localizing with telomere foci (red). Data represent average of […]. P values were calculated by unpaired Student's t-test.
compound,measurement,setting,value
"Nc1nc2c(ncn2[C@H]2C[C@H](O)[C@@H](CO)O2)c(=S)[nH]1 [6-thio-dG, 6-thio-2′-deoxy-guanosine]",cell viability,[1],impaired the viability
same,cell viability,[2],impairs viability; also recorded: impaired the viability
same,"tumor growth, single agent",[3],"slowed the growth of tumors; also recorded: slowed, but did not completely abrogated tumor growth"
same,relative cell number (sensitivity),[4],sensitive
